Measured values from PubChem BioAssay AID330 (DTP/NCI, 2004).
Toxic doses and inconclusive results are not listed.

System: P388 leukemia ip, CD2F1 mice, survival T/C
Test: NCI In Vivo Anticancer Drug Screen. Data for tumor model P388 Leukemia (intraperitoneal) in CD2F1 (CDF1) mice
Conditions: endpoint: median survival time, higher = longer survival
Summary of the method: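 Mice carrying the transplanted tumor received test compound or vehicle. Survival was recorded in each group, and the value is the treated-group measurement divided by that of the vehicle-treated control group.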

[1] = dose: 100.0 mg/kg/injection, schedule: Q04DX002 (ip), vehicle: saline
[2] = dose: 200.0 mg/kg/injection, schedule: Q04DX002 (ip), vehicle: saline
[3] = dose: 50.0 mg/kg/injection, schedule: Q01DX009 (ip), vehicle: Klucel (hydroxypropylcellulose) (HPC)
[4] = dose: 100.0 mg/kg/injection, schedule: Q01DX009 (ip), vehicle: Klucel (hydroxypropylcellulose) (HPC)
[5] = dose: 200.0 mg/kg/injection, schedule: Q01DX009 (ip), vehicle: Klucel (hydroxypropylcellulose) (HPC)
[6] = dose: 100.0 mg/kg/injection, schedule: Q04DX003 (ip), vehicle: Klucel (hydroxypropylcellulose) (HPC)
[7] = dose: 200.0 mg/kg/injection, schedule: Q04DX003 (ip), vehicle: Klucel (hydroxypropylcellulose) (HPC)

For `CCCN1C(=O)CC(=O)N(CCC)P1(=O)OCC`, the T/C [1] was 101 % of control, the T/C [2] was 108 % of control and the T/C (dose: 400.0 mg/kg/injection, schedule: Q04DX002 (ip), vehicle: saline) was 101 % of control.
With `C1=NCCNc2nc3ccccc3cc2C=NCCNc2nc3ccccc3cc21` the T/C (dose: 50.0 mg/kg/injection, schedule: Q04DX002 (ip), vehicle: saline) was 100 % of control, the T/C [1] was 99 % of control and the T/C [2] was 99 % of control.
With `CCOC(=O)c1ccc(NC(=O)Nc2nnc(C)c(C)n2)cc1` the T/C [3] was 92 % of control, the T/C [4] was 88 % of control and the T/C [5] was 88 % of control.
With `C[Si](C)(C)c1cnc(N)[nH]c1=O` the T/C (dose: 25.0 mg/kg/injection, schedule: Q01DX009 (ip), vehicle: saline with Tween-80) was 115 % of control, the T/C (dose: 50.0 mg/kg/injection, schedule: Q01DX009 (ip), vehicle: saline with Tween-80) was 120 % of control and the T/C (dose: 100.0 mg/kg/injection, schedule: Q01DX009 (ip), vehicle: saline with Tween-80) was 120 % of control.
In the case of `O=C(O)/C=C\C(=O)NCCCCCC(=O)O`, the T/C [3] is reported as 102 % of control, the T/C [4] is reported as 103 % of control and the T/C [5] is reported as 105 % of control.
For `Cc1ncc(Cn2c(C)c(CCO)sc2=S)c(N)n1`, the T/C (dose: 50.0 mg/kg/injection, schedule: Q01DX009 (ip), vehicle: saline) was 99 % of control, the T/C (dose: 100.0 mg/kg/injection, schedule: Q01DX009 (ip), vehicle: saline) was 101 % of control and the T/C (dose: 200.0 mg/kg/injection, schedule: Q01DX009 (ip), vehicle: saline) was 108 % of control.
In the case of `CC(C)[C@]12O[C@H]1[C@@H]1O[C@]13[C@]1(O[C@H]1C[C@H]1C4=C(CC[C@@]13C)C(=O)OC4)[C@@H]2O`, the T/C (dose: 62.5 micrograms/kg/injection, schedule: Q01DX009 (ip), vehicle: saline with Tween-80) is reported as 95 % of control, the T/C (dose: 125.0 micrograms/kg/injection, schedule: Q01DX009 (ip), vehicle: saline with Tween-80) is reported as 95 % of control and the T/C (dose: 250.0 micrograms/kg/injection, schedule: Q01DX009 (ip), vehicle: saline with Tween-80) is reported as 112 % of control.
For `C[n+]1ccc2ccccc2c1SC1CCC2CC3CC2C1C3` (centres undefined), the T/C (dose: 7.5 mg/kg/injection, schedule: Q01DX005 (ip), vehicle: saline with Tween-80) was 106 % of control and the T/C (dose: 15.0 mg/kg/injection, schedule: Q01DX005 (ip), vehicle: saline with Tween-80) was 110 % of control.
`Cc1c(N=Nc2ccccc2C(F)(F)F)c(-c2ccccc2)nn1C(=S)S` was tested, and the T/C (dose: 100.0 mg/kg/injection, schedule: Q01DX001 (ip), vehicle: saline with Tween-80) was 89 % of control, the T/C (dose: 200.0 mg/kg/injection, schedule: Q01DX001 (ip), vehicle: saline with Tween-80) was 90 % of control and the T/C (dose: 400.0 mg/kg/injection, schedule: Q01DX001 (ip), vehicle: saline with Tween-80) was 101 % of control.
For `COC(=O)C12c3ccccc3C3C(c4ccccc41)C32` (centres undefined), the T/C (dose: 100.0 mg/kg/injection, schedule: Q04DX003 (ip), vehicle: saline) was 102 % of control and the T/C (dose: 200.0 mg/kg/injection, schedule: Q04DX003 (ip), vehicle: saline) was 96 % of control.
`NC(CSCCNc1ccc([N+](=O)[O-])cc1[N+](=O)[O-])C(=O)O` (centres undefined) was tested, and the T/C (dose: 25.0 mg/kg/injection, schedule: Q04DX003 (ip), vehicle: Klucel (hydroxypropylcellulose) (HPC)) was 99 % of control, the T/C (dose: 50.0 mg/kg/injection, schedule: Q04DX003 (ip), vehicle: Klucel (hydroxypropylcellulose) (HPC)) was 100 % of control and the T/C [6] was 89 % of control. For the same compound, the T/C [7] was 99 % of control.
In the case of `CC(=O)[O][Ge]([c]1ccccc1)([c]1ccccc1)[c]1ccccc1`, the T/C [3] is reported as 107 % of control, the T/C [4] is reported as 107 % of control and the T/C [5] is reported as 107 % of control. For the same compound, the T/C (dose: 400.0 mg/kg/injection, schedule: Q01DX009 (ip), vehicle: Klucel (hydroxypropylcellulose) (HPC)) was 96 % of control.
`CNc1n[nH]c(-c2ccccc2)n1` was tested, and the T/C [3] was 101 % of control, the T/C [4] was 102 % of control and the T/C [5] was 102 % of control.
`O=C(O)COC(=O)c1ccc([N+](=O)[O-])cc1` was tested, and the T/C [6] was 99 % of control, the T/C [7] was 108 % of control and the T/C (dose: 400.0 mg/kg/injection, schedule: Q04DX003 (ip), vehicle: Klucel (hydroxypropylcellulose) (HPC)) was 100 % of control.
For `CN(C)CCO[Si](C)(C)[CH2][Sn]([CH3])([CH3])[CH3]`, the T/C (dose: 60.0 mg/kg/injection, schedule: Q01DX005 (ip), vehicle: saline) was 108 % of control and the T/C (dose: 120.0 mg/kg/injection, schedule: Q01DX005 (ip), vehicle: saline) was 105 % of control.
With `Cc1cccc(=O)[n-]1.Cc1cccc(=O)[n-]1.Cc1cccc(=O)[n-]1.Cc1cccc(=O)[n-]1.Cc1cccc(=O)[n-]1.Cc1cccc(=O)[n-]1.Cc1cccc(=[OH+])[n-]1.Cc1cccc(=[OH+])[n-]1.[Rh+2].[Rh+2].[Rh+2].[Rh+2]` the T/C (dose: 100.0 mg/kg/injection, schedule: Q04DX002 (ip), vehicle: Klucel (hydroxypropylcellulose) (HPC)) was 104 % of control and the T/C (dose: 200.0 mg/kg/injection, schedule: Q04DX002 (ip), vehicle: Klucel (hydroxypropylcellulose) (HPC)) was 113 % of control.
In the case of `Cc1snnc1-c1ccccc1`, the T/C (dose: 50.0 mg/kg/injection, schedule: Q01DX005 (ip), vehicle: Klucel (hydroxypropylcellulose) (HPC)) is reported as 105 % of control, the T/C (dose: 100.0 mg/kg/injection, schedule: Q01DX005 (ip), vehicle: Klucel (hydroxypropylcellulose) (HPC)) is reported as 105 % of control and the T/C (dose: 200.0 mg/kg/injection, schedule: Q01DX005 (ip), vehicle: Klucel (hydroxypropylcellulose) (HPC)) is reported as 96 % of control.
